In patent US20080096831A1, “Stabilized azithromycin composition” (priority 2003, published 2008):

Test: Impurity analysis of azithromycin monohydrate granules by HPLC after storage at 50° C. for 8 days
Type: physicochemical
Details: results of Table 1
Experimental: Wet granules prepared according to the procedure set forth in Example 1 were placed on a tray which was placed in an oven at 55° C. Six samples were taken at different times and the moisture content was determined using an OHAUS Balance. The water/moisture content of each sample varied from 3.3-12.5 wt %, based on the total weight of the granules. The samples were stored in glass bottles, sealed, and placed in an oven at 50° C. After 8 days, the samples were removed from the oven and the amount and type of impurities was determined by high performance liquid chromatography (HPLC).
Sample solutions were freshly prepared from azithromycin monohydrate and injected on column. The percentages of impurities was calculated from the integrator output. The performance of the HPLC system was tested using standardized solutions of azithromycin monohydrate.
Three impurities were identified and measured as a percentage of the total azithromycin monohydrate in each sample.

water content range in which chemical stability is good: 5.5-12.4 wt %
SMILES: CC[C@H]1OC(=O)[C@H](C)[C@@H](O[C@H]2C[C@@](C)(OC)[C@@H](O)[C@H](C)O2)[C@H](C)[C@@H](O[C@@H]2O[C@H](C)C[C@H](N(C)C)[C@H]2O)[C@](C)(O)C[C@@H](C)CN(C)[C@H](C)[C@@H](O)[C@]1(C)O (relative stereo) [azithromycin monohydrate, [2R-(2R*,3S*,4R*,5R*,8R*, 10R*, 11R*, 12S*, 13S*, 14R*)]-13-[(2,6-dideoxy-3-C-methyl-3-β-methyl-α-L-ribo-hexopyranosyl)oxy]-2-ethyl-3,4,10-trihydroxy-3,5,6,8,10,12,14-heptamethyl-11-[[3,4,6-trideoxy-3-(dimethylamino)-β-D-xylo-hexopyranosyl]oxy]-1-oxa-6-azacyclopentadecan-15-one monohydrate]
